Experimental findings from PubChem BioAssay AID248 (DTP/NCI, 2004) are described below.

The subject of this test is L1210 leukemia ip in BDF1 mice, survival T/C. Kind of test: NCI In Vivo Anticancer Drug Screen. Data for tumor model L1210 Leukemia (intraperitoneal) in B6D2F1 (BDF1) mice. The settings on record: endpoint: mean survival time, higher = longer survival. Summed up: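 Ratio derived from survival: compound-dosed mice over vehicle-dosed mice, all bearing a transplantable tumor.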

The mark [1] stands for this setting: dose: 100.0 mg/kg/injection, schedule: Q01DX001 (ip), vehicle: carboxymethylcellulose (CMC).
The mark [2] stands for this setting: dose: 100.0 mg/kg/injection, schedule: Q01DX009 (ip), vehicle: Klucel (hydroxypropylcellulose) (HPC).
Where [3] appears, read: dose: 100.0 mg/kg/injection, schedule: Q04DX003 (ip), vehicle: Klucel (hydroxypropylcellulose) (HPC).
Setting [4] is: dose: 200.0 mg/kg/injection, schedule: Q01DX001 (ip), vehicle: carboxymethylcellulose (CMC).
[5] abbreviates: dose: 200.0 mg/kg/injection, schedule: Q04DX003 (ip), vehicle: Klucel (hydroxypropylcellulose) (HPC).
Where [6] appears, read: dose: 400.0 mg/kg/injection, schedule: Q01DX001 (ip), vehicle: carboxymethylcellulose (CMC).
[7] abbreviates: dose: 400.0 mg/kg/injection, schedule: Q01DX009 (ip), vehicle: Klucel (hydroxypropylcellulose) (HPC).
Setting [8] is: dose: 400.0 mg/kg/injection, schedule: Q04DX003 (ip), vehicle: Klucel (hydroxypropylcellulose) (HPC).
Setting [9] is: dose: 100.0 mg/kg/injection, schedule: Q01DX009 (ip), vehicle: saline.
Setting [10] is: dose: 100.0 mg/kg/injection, schedule: Q04DX003 (ip), vehicle: saline.
[11] abbreviates: dose: 200.0 mg/kg/injection, schedule: Q01DX009 (ip), vehicle: saline.
Setting [12] is: dose: 200.0 mg/kg/injection, schedule: Q04DX003 (ip), vehicle: saline.
[13] abbreviates: dose: 400.0 mg/kg/injection, schedule: Q01DX009 (ip), vehicle: saline.
The mark [14] stands for this setting: dose: 400.0 mg/kg/injection, schedule: Q04DX003 (ip), vehicle: saline.
Setting [15] is: dose: 100.0 mg/kg/injection, schedule: Q01DX001 (ip), vehicle: saline.
[16] abbreviates: dose: 200.0 mg/kg/injection, schedule: Q01DX001 (ip), vehicle: saline.
Where [17] appears, read: dose: 400.0 mg/kg/injection, schedule: Q01DX001 (ip), vehicle: saline.
The mark [18] stands for this setting: dose: 100.0 mg/kg/injection, schedule: Q01DX001 (ip), vehicle: Klucel (hydroxypropylcellulose) (HPC).
Setting [19] is: dose: 100.0 mg/kg/injection, schedule: Q01DX009 (ip), vehicle: saline with Tween-80.
Where [20] appears, read: dose: 200.0 mg/kg/injection, schedule: Q01DX001 (ip), vehicle: Klucel (hydroxypropylcellulose) (HPC).
[21] abbreviates: dose: 200.0 mg/kg/injection, schedule: Q01DX009 (ip), vehicle: saline with Tween-80.
Setting [22] is: dose: 400.0 mg/kg/injection, schedule: Q01DX001 (ip), vehicle: Klucel (hydroxypropylcellulose) (HPC).
Where [23] appears, read: dose: 400.0 mg/kg/injection, schedule: Q01DX009 (ip), vehicle: saline with Tween-80.
Setting [24] is: dose: 100.0 mg/kg/injection, schedule: Q04DX003 (ip), vehicle: saline with Tween-80.
Setting [25] is: dose: 200.0 mg/kg/injection, schedule: Q04DX003 (ip), vehicle: saline with Tween-80.
[26] abbreviates: dose: 400.0 mg/kg/injection, schedule: Q04DX003 (ip), vehicle: saline with Tween-80.

Several values for one entry are separate records, joined by “and”; a condition that tells them apart may be missing. Identical values can stand only once. Toxic doses and inconclusive results are not listed. Peptide text beside a SMILES is read from it. * marks the point of attachment. CH2Cl = ClC*

On to `CCOC(=O)c1[nH]cnc1/N=N/N(C)CCO`, for which the T/C (dose: 50.0 mg/kg/injection, schedule: Q01DX009 (ip), vehicle: Klucel (hydroxypropylcellulose) (HPC)) was 122 % of control; the T/C (dose: 90.0 mg/kg/injection, schedule: Q01DX009 (ip), vehicle: Klucel (hydroxypropylcellulose) (HPC)) was 116 % of control; the T/C under setting [1] is 115 % of control; the T/C under setting [2] is 117 % of control; the T/C under setting [3] was 109 % of control and 115 % of control; the T/C (dose: 175.0 mg/kg/injection, schedule: Q01DX009 (ip), vehicle: saline) was 152 % of control. For the same compound, the T/C was 102 % of control under setting [4]; 108 % of control and 121 % of control under setting [5]; 107 % of control under setting [6]; 150 % of control and 154 % of control under setting [7]; 124 % of control under setting [8]; 154 % of control (dose: 600.0 mg/kg/injection, schedule: Q01DX009 (ip), vehicle: saline).
Turning to `CN(C)c1ccccc1C1CCCCCC1O` (stereo unspecified), the T/C (dose: 75.0 mg/kg/injection, schedule: Q01DX001 (ip), vehicle: carboxymethylcellulose (CMC)) is 101 % of control; the T/C (dose: 150.0 mg/kg/injection, schedule: Q01DX001 (ip), vehicle: carboxymethylcellulose (CMC)) is 90 % of control; the T/C (dose: 300.0 mg/kg/injection, schedule: Q01DX001 (ip), vehicle: carboxymethylcellulose (CMC)) is 90 % of control.
For `O=C(NCCO)Nc1ccccc1F`, the T/C under setting [9] was 95 % of control; the T/C under setting [10] was 95 % of control; the T/C under setting [11] was 101 % of control; the T/C under setting [12] is 95 % of control; the T/C under setting [13] is 106 % of control; the T/C under setting [14] was 93 % of control.
For `CC(=O)N1CSCC1C(=O)O` (stereo unspecified), the T/C by setting is: under setting [3], 89 % of control; under setting [5], 94 % of control; under setting [8], 91 % of control.
For `Cc1ccc2c(c1)P(O)(=S)c1cc(F)ccc1O2` (stereo unspecified), the T/C reads like this: (dose: 50.0 mg/kg/injection, schedule: Q01DX009 (ip), vehicle: saline) 113 % of control; under setting [9], 103 % of control; under setting [11], 110 % of control.
Consider `COc1c2occc2c(OC)c2c(=O)cc(/C=C/c3cccnc3)oc12`, for which the T/C under setting [15] is 97 % of control, the T/C under setting [16] is 101 % of control and the T/C under setting [17] was 101 % of control.
Turning to `Nc1c(Cl)cc2c(c1Br)Cc1ccccc1-2`, the T/C is 107 % of control (dose: 50.0 mg/kg/injection, schedule: Q01DX001 (ip), vehicle: carboxymethylcellulose (CMC)); 107 % of control under setting [1]; 117 % of control under setting [4]; 107 % of control under setting [6].
For `O=C1C(=O)c2cccc3cccc1c23`, the T/C is, setting by setting: under setting [18], 88 % of control; under setting [19], 90 % of control; under setting [20], 93 % of control; under setting [21], 89 % of control; under setting [22], 97 % of control; under setting [23], 89 % of control.
As for `CC(=O)OCC(=O)[C@@]1(O)CC[C@H]2[C@@H]3CCC4=CC(=O)C=C[C@]4(C)[C@H]3[C@@H](O)C[C@@]21C`, the T/C by setting is: (dose: 50.0 mg/kg/injection, schedule: Q04DX003 (sc), vehicle: steriod suspending solution) 97 % of control; (dose: 100.0 mg/kg/injection, schedule: Q04DX003 (sc), vehicle: steriod suspending solution) 94 % of control; (dose: 200.0 mg/kg/injection, schedule: Q04DX003 (sc), vehicle: steriod suspending solution) 96 % of control; (dose: 400.0 mg/kg/injection, schedule: Q04DX003 (sc), vehicle: steriod suspending solution) 106 % of control.
As to `Cc1nc(N)[nH]c(=O)c1CCCOc1ccc([N+](=O)[O-])cc1`, the T/C was 106 % of control (dose: 12.5 mg/kg/injection, schedule: Q04DX002 (ip), vehicle: saline); 102 % of control (dose: 25.0 mg/kg/injection, schedule: Q04DX002 (ip), vehicle: saline); 95 % of control (dose: 50.0 mg/kg/injection, schedule: Q04DX002 (ip), vehicle: saline).
Consider `COC(=O)c1cc(=O)c2c(=O)n(Cc3ccccc3)c(=O)n(Cc3ccccc3)c2[nH]1`, for which the T/C runs as follows: under setting [18], 106 % of control; under setting [20], 100 % of control; under setting [22], 118 % of control.
For `CN(C)c1ccc(NC(=O)Nc2cccc(Cl)c2)cc1`, the T/C by setting is: under setting [19], 91 % of control; under setting [24], 94 % of control; under setting [21], 94 % of control; under setting [25], 100 % of control; under setting [23], 92 % of control; under setting [26], 92 % of control.
With `Nc1ncnc2c1nc(Br)n2C1OC(CO)C(O)C1O` (stereo unspecified), the T/C reads like this: under setting [10], 97 % of control; under setting [12], 101 % of control; under setting [14], 101 % of control.
For the compound `CC(=O)NC(CC(C)C)C(=O)NC(Cc1ccccc1)C(=O)CCl` (stereo not drawn) (Ac-Leu-Phe-CH2Cl; configuration not given here), the T/C is, setting by setting: (dose: 100.0 mg/kg/injection, schedule: Q04DX002 (ip), vehicle: Klucel (hydroxypropylcellulose) (HPC)) 94 % of control; (dose: 200.0 mg/kg/injection, schedule: Q04DX002 (ip), vehicle: Klucel (hydroxypropylcellulose) (HPC)) 98 % of control; (dose: 400.0 mg/kg/injection, schedule: Q04DX002 (ip), vehicle: Klucel (hydroxypropylcellulose) (HPC)) 102 % of control.
Regarding `COC(=O)N/N=C/c1cccnc1`, the T/C is 103 % of control under setting [2]; 103 % of control (dose: 200.0 mg/kg/injection, schedule: Q01DX009 (ip), vehicle: Klucel (hydroxypropylcellulose) (HPC)); 111 % of control under setting [7].
For the compound `C[C@H]1CC[C@@H]2[C@@H](C)[C@H]3[C@H](C[C@H]4[C@@H]5CC=C6C[C@@H](O)CC[C@]6(C)[C@H]5C[C@H](O)[C@]34C)N2C1`, the T/C (dose: 100.0 mg/kg/injection, schedule: Q01DX001 (sc), vehicle: steriod suspending solution) is 100 % of control; the T/C (dose: 200.0 mg/kg/injection, schedule: Q01DX001 (sc), vehicle: steriod suspending solution) was 91 % of control; the T/C (dose: 400.0 mg/kg/injection, schedule: Q01DX001 (sc), vehicle: steriod suspending solution) is 91 % of control.
As for `CC(=O)Nc1cccc(N=Cc2ccc(N(CCOS(C)(=O)=O)CCOS(C)(=O)=O)cc2C)c1`, the T/C (dose: 8.0 mg/kg/injection, schedule: Q01DX009 (ip), vehicle: saline with Tween-80) was 120 % of control.
Turning to `CNC(C)=O`, the T/C is 100 % of control under setting [15]; 110 % of control under setting [9]; 86 % of control (dose: 125.0 mg/kg/injection, schedule: Q01DX Z (ip), vehicle: carboxymethylcellulose (CMC)); 97 % of control under setting [16]; 107 % of control under setting [11]; 95 % of control under setting [17]. Moreover, the T/C by setting is: under setting [13], 115 % of control; (dose: 500.0 mg/kg/injection, schedule: Q01DX Z (ip), vehicle: carboxymethylcellulose (CMC)) 86 % of control; (dose: 1000.0 mg/kg/injection, schedule: Q01DX Z (ip), vehicle: carboxymethylcellulose (CMC)) 110 % of control.
With `COC(=O)Cc1ccccc1C(=O)OC`, the T/C is, setting by setting: under setting [24], 107 % of control; under setting [25], 96 % of control; under setting [26], 100 % of control.
Take `CCCCCCCCCCCC[N+](C)(C)C`: the T/C was 104 % of control (dose: 10.0 mg/kg/injection, schedule: Q01DX009 (ip), vehicle: saline) and 105 % of control (dose: 20.0 mg/kg/injection, schedule: Q01DX009 (ip), vehicle: saline).
Take `COc1ccc(C2c3cc(OC)c(OC)c(S(N)(=O)=O)c3CC3C(=O)OCC32)cc1OC` (stereo unspecified): the T/C reads like this: under setting [15], 98 % of control; under setting [16], 96 % of control; under setting [17], 98 % of control.
